Our source for the IC50 values is patent publication US12240862B2, “Inhibitors of peptidylarginine deiminases” (Gilead Sciences, Inc., priority 2020, dated 2025).

pIC50: −log10 of the molar value.

The target of the experiment is T1, human PAD4 (Homo sapiens, UniProt Q9UM07).
T1 construct: human PAD4 (NM_012387), A2P663, was PCR amplified; His-SUMO (N, cleaved yes); made in house; host or cells: E. coli BL21(DE3)
Description: In vitro PAD4 BAEE biochemical assay. Conditions: human PAD4, BAEE substrate; 5 nM PAD4, 2 mM calcium chloride, 3 mM BAEE; geometric mean of multiple experiments. The method in brief:
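Ammonia release from BAEE deimination monitored by o-phthalaldehyde amine coupling (1 h, 25 °C) after EDTA stop. Final conditions: 5 nM tag-free recombinant human PAD4 (E. coli), 2 mM CaCl2, 3 mM BAEE, pH 7.6 MOPS with DTT; 30 min compound preincubation, then 2 h reaction at 25 °C.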

T1 sequence (Q9UM07 2-663): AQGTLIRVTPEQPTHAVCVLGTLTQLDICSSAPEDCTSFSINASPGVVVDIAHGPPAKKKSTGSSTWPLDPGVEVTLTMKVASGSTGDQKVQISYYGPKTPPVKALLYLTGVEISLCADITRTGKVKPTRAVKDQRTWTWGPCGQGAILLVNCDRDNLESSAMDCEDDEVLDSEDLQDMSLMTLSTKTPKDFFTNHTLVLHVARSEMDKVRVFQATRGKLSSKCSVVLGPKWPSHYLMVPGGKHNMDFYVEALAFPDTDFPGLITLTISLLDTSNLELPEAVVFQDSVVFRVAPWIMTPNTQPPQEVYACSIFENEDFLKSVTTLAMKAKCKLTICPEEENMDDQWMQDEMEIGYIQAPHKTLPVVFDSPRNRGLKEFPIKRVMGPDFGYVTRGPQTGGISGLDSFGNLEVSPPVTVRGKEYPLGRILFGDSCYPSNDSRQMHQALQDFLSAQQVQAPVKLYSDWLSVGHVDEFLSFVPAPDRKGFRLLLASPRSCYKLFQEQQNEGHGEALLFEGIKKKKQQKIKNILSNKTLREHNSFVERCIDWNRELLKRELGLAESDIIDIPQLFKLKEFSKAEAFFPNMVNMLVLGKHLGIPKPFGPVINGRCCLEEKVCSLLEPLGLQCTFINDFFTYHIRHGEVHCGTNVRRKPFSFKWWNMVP

As for `COc1cc(C(=O)N2CC[C@@H](O)[C@@H](N)C2)cc2nc(-c3cc4ccc(N(C(F)F)S(C)(=O)=O)nc4n3CC3CC3)c(C)n12` [Example 348, ~{N}-[2-[7-[(3~{S}, 4~{R})-3-amino-4-hydroxypiperidine-1-carbonyl]-5-methoxy-3-methylimidazo [1,2-a]pyridin-2-yl]-1-(cyclopropylmethyl)pyrrolo[2,3-b]pyridin-6-yl]-~{N}-(difluoromethyl) methanesulfonamide], the pIC50 is 6.84. As to `COc1cc(C(=O)N2C[C@H]3CCC[C@@H]2[C@@H]3N)cc2nc(-c3cc4ccc(N(C(F)F)S(C)(=O)=O)nc4n3CC3CC3)c(C)n12` [Example 349, N-(2-(7-((1R,5R,8R)-8-amino-6-azabicyclo[3.2.1]octane-6-carbonyl)-5-methoxy-3-methylimidazo [1,2-a]pyridin-2-yl)-1-(cyclopropylmethyl)-1H-pyrrolo[2,3-b]pyridin-6-yl)-N-(difluoromethyl) methanesulfonamide], the pIC50 is 6.31. Regarding `COc1cc(C(=O)N2[C@H]3CC(C)[C@@H]2[C@H](N)C3)cc2nc(-c3cc4ccc(N(C(F)F)S(C)(=O)=O)nc4n3CC3CC3)c(C)n12` (stereo partly drawn) [Example 351, N-[2-[7-[(1R,2R,4S)-2-amino-6-methyl-7-azabicyclo[2.2.1]heptane-7-carbonyl]-5-methoxy-3-methyl-imidazo[1,2-a]pyridin-2-yl]-1-(cyclopropylmethyl)pyrrolo [2,3-b]pyridin-6-yl]-N-(difluoromethyl) methanesulfonamide], the pIC50 was 5.19. As to `COc1cc(C(=O)N2[C@@H]3C[C@@H](N)[C@H]2CC3C)cc2nc(-c3cc4ccc(N(C(F)F)S(C)(=O)=O)nc4n3CC3CC3)c(C)n12` (stereo partly drawn) [Example 352, N-[2-[7-[(1R,2R,4R)-2-amino-5-methyl-7-azabicyclo[2.2.1]heptane-7-carbonyl]-5-methoxy-3-methyl-imidazo[1,2-a]pyridin-2-yl]-1-(cyclopropylmethyl)pyrrolo [2,3-b]pyridin-6-yl]-N-(difluoromethyl) methanesulfonamide], the pIC50 is 6.15.

On to `COc1cc(C(=O)N2C[C@H](N)C[C@@H]2CF)cc2nc(-c3cc4ccc(N(C(F)F)S(C)(=O)=O)nc4n3CC3CC3)c(C)n12` [Example 353, N-[2-[7-[(2R,4R)-4-amino-2-(fluoromethyl)pyrrolidine-1-carbonyl]-5-methoxy-3-methyl-imidazo[1,2-a]pyridin-2-yl]-1-(cyclopropylmethyl)pyrrolo [2,3-b]pyridin-6-yl]-N-(difluoromethyl) methanesulfonamide], for which the negative-log IC50 (pIC50) was 4.57.

`COc1cc(C(=O)N2C[C@H](N)C[C@@H]2C)cc2nc(-c3cc4ccc(N(C(F)F)S(C)(=O)=O)nc4n3CC3CC3)c(C)n12` [Example 354, N-[2-[7-[(2S,4R)-4-amino-2-methyl-pyrrolidine-1-carbonyl]-5-methoxy-3-methyl-imidazo[1,2-a]pyridin-2-yl]-1-(cyclopropylmethyl)pyrrolo[2,3-b]pyridin-6-yl]-N-(difluoromethyl) methanesulfonamide]: the pIC50 was 5.72. Next, `COc1cc(C(=O)N2CC[C@H]3OCCCN[C@H]3C2)cc2nc(-c3cc4ccc(N(C(F)F)S(C)(=O)=O)nc4n3CC3CC3)c(C)n12` [Example 359]: 6.38. With `COc1cc(C(=O)N2CC[C@@H](NC(C)=O)[C@@H](N)C2)cc2nc(-c3cc4ccc(N(C(F)F)S(C)(=O)=O)nc4n3CC3CC3)c(C)n12` [Example 360, ~{N}-[(3~{S},4~{R})-3-amino-1-[2-[1-(cyclopropylmethyl)-6-[difluoromethyl (methylsulfonyl)amino]pyrrolo[2,3-b]pyridin-2-yl]-5-methoxy-3-methylimidazo[1,2-a]pyridine-7-carbonyl]piperidin-4-yl]acetamide] the figure was 6.14.
